Patent US20090156496A1, “METHODS AND COMPOSITIONS FOR TREATING AND PREVENTING PERIPHERAL NERVE DAMAGE” (CHILDREN'S MEDICAL CENTER CORPORATION, INC., priority 2006, published 2009)
“Also recorded” adds a separate entry of the source. Values belong to the compound of their own block, whether it stands above or below them. Numbered stars: 1 amine (or outer) side, 2 acyl side, 3 side chain; on linkers, the order of the positions; unused ones are H or OH. Bridge positions count the residues as written; N and C are the ends. Square brackets hold non-standard residues; d marks the D form. Peptide text beside a SMILES is read from it. I, II: the chains in the order shown. Actinocin(9to1) = Cc1c2oc3c(C)ccc(C(=O)[*:1])c3nc-2c(C(=O)[*:2])c(N)c1=O; NMeV = CN[C@H](C(=O)O)C(C)C; Sar = CNCC(=O)O

What was measured:
[1] = test system: mature RGCs; settings: previously reported; cited from earlier work
[2] = test system: RGCs; assay: axon outgrowth in primary adult retinal cultures; type: cell-based, rat; settings: for effect of inhibitor on oncomodulin-induced axon outgrowth: PD98059 5 μM, LY 294002 20 μM, Jaki 20 nM, KN92 10 μM, ActD 8 nM
Description: Protein A beads (Sigma) were incubated with either rabbit anti-OM antiserum (Swant) or normal rabbit serum (Invitrogen) for 16 h at 4° C. After extensive rinsing, beads with adsorbed IgGs were mixed with MCM (1 ml 10× concentrate, collected 8 h after zymosan treatment) for 24 h at 4° C. and then pelleted down by centrifugation. We tested 5 μl of the supernatants or untreated MCM for oncomodulin by western blotting. Bioactivity of immune-depleted and control MCM was tested in dissociated RGC cultures as described below at a 1:4 dilution, a concentration found to give a near-maximal response.
(§1) Adult rat retinal cultures were prepared as described^21. […] One week later, retinas were dissected, dissociated, and the cells plated in defined, serum-free medium. Axon growth (% RGCs extending axons ≧30 μm, ≧70 μm or ≧140 μm in length) was evaluated after 3 d in quadruplicate samples in a blinded fashion. All experiments were repeated at least three separate times. In some instances, cells were immunostained with GAP-43 antibody (1:500, Chemicon).

[3] = test system: RGCs; assay: RGC survival in primary retinal cultures; type: cell-based, rat
Description: as §1

[4] = test system: DRG neurons; assay: neurite outgrowth of DRG neurons cultured after intraganglionic injection in vivo; type: cell-based, rat; settings: CSPG substrate
Description: L4-L5 DRGs from adult male Sprague-Dawley rats (250-300 g) were injected with 5 μl of saline or oncomodulin (200 ng μl^−1). After 7 d, injected ganglia were dissected and single-cell suspensions were prepared as described^50. Cells were cultured on laminin (Sigma) with or without CSPGs (Chemicon) for 20 h or 40 h. In some cases, chondroitinase ABC (0.5 U ml^−1, Seikagaku) was added. Neurite outgrowth was visualized by Tuj1 antibody to class III β-tubulin (1:5,000, Babco) and quantified in quadruplicate samples by a blinded observer. In other studies, L4-L5 DRG neurons were cultured in the presence of absence of oncomodulin, mannose and/or forskolin in RPMI-1640 to limit spontaneous outgrowth. Cells were fixed and immunostained after 3 d and evaluated for outgrowth.

Compound: epidermal growth factor
- axon extension of mature RGCs in culture [1]: do not stimulate mature RGCs to extend axons

Compound: CCCC(=O)Nc1ncnc2c1ncn2[C@@H]1O[C@@H]2COP(=O)(O)O[C@H]2[C@H]1OC(=O)CCC [dibutyryl cAMP, reference compound]
- effect on oncomodulin-induced outgrowth ([2]; [dB-cAMP] above 250 μM): further increases diminished outgrowth
- effect on oncomodulin-induced outgrowth ([2]; [dB-cAMP] up to 250 μM): enhanced the effect of oncomodulin

- axon outgrowth bioassay, Ca2+-binding proteins ([2]; 15 nM or tenfold higher concentration, forskolin and mannose present): inactive
Compound: calmodulin

Compound: Cc1c2oc3c(C)ccc(C(=O)N[C@@H]4C(=O)N[C@H](C(C)C)C(=O)N5CCC[C@H]5C(=O)N(C)CC(=O)N(C)[C@@H](C(C)C)C(=O)O[C@@H]4C)c3nc-2c(C(=O)N[C@@H]2C(=O)N[C@H](C(C)C)C(=O)N3CCC[C@H]3C(=O)N(C)CC(=O)N(C)[C@@H](C(C)C)C(=O)O[C@@H]2C)c(N)c1=O [actinomycin D, reference compound] (I: T[dV]P[Sar][NMeV] / II: T[dV]P[Sar][NMeV]; ester I:1-I:C, II:1-II:C; linker I:N-II:N via Actinocin(9to1))
- effect of inhibitor on oncomodulin-induced axon outgrowth ([2]; KN93 10 μM): blocked the effects of oncomodulin on outgrowth
- RGC survival ([3]; retinal culture): without altering RGC survival

Compound: COc1ccc(S(=O)(=O)Nc2ccccc2CN(C)C/C=C/c2ccc(Cl)cc2)cc1 [KN92, reference compound]
- effect of inhibitor on oncomodulin-induced axon outgrowth ([2]; KN93 10 μM): did not substantially diminish outgrowth

Compound: COc1cccc(-c2cc(=O)c3ccccc3o2)c1N [PD98059, reference compound]
- effect of inhibitor on oncomodulin-induced axon outgrowth ([2]; KN93 10 μM): not blocked; also recorded: enhanced outgrowth slightly

Compound: interleukin-6
- axon extension of mature RGCs in culture [1]: do not stimulate mature RGCs to extend axons

Compound: CC(C)(C)c1nc2c3cc[nH]c(=O)c3c3cc(F)ccc3c2[nH]1 [Jaki, reference compound]
- effect of inhibitor on oncomodulin-induced axon outgrowth ([2]; KN93 10 μM): did not diminish oncomodulin's activity

Compound: fibroblast growth factor-2
- axon extension of mature RGCs in culture [1]: do not stimulate mature RGCs to extend axons

Compound: COc1ccc(S(=O)(=O)N(CCO)c2ccccc2CN(C)C/C=C/c2ccc(Cl)cc2)cc1 [KN93, reference compound]
- effect of inhibitor on outgrowth induced by forskolin plus mannose ([2]; KN93 10 μM, three inhibitors combined): without altering the effect of mannose and forskolin
- effect of inhibitor on oncomodulin-induced axon outgrowth ([2]; KN93 10 μM): blocked the effect of oncomodulin fully

Compound: chondroitinase ABC
- DRG neurite outgrowth on nonpermissive substrate [4]: promoted some outgrowth

Compound: nerve growth factor
- axon extension of mature RGCs in culture [1]: do not stimulate mature RGCs to extend axons

Compound: Lysozyme
- axon outgrowth from RGCs ([2]; data not shown): did not enhance outgrowth
- diminished RGC survival ([3]; data not shown): ~25%
